Patent US7189851B2, “Condensed heterocyclic compounds as calcitonin agonists” (SmithKline Beecham Corporation, priority 2002, dated 2007)
pEC50: −log10 of the molar value.

Each compound was assayed against T1, human calcitonin-2 receptor (hCT2R) (Homo sapiens, UniProt P30988) (assay: HCT2R CRE-luc reporter assay). Details: agonist activity; CHO-6CRE-luciferase cells co-transfected with hCT2R.
T1 construct: expressed in transfected cells; host or cells: Chinese hamster ovary (CHO) cells co-transfected with a 6CRE-luciferase reporter; receptor cDNA cloned from the MCF7 cell line
T1 sequence (P30988 25-474): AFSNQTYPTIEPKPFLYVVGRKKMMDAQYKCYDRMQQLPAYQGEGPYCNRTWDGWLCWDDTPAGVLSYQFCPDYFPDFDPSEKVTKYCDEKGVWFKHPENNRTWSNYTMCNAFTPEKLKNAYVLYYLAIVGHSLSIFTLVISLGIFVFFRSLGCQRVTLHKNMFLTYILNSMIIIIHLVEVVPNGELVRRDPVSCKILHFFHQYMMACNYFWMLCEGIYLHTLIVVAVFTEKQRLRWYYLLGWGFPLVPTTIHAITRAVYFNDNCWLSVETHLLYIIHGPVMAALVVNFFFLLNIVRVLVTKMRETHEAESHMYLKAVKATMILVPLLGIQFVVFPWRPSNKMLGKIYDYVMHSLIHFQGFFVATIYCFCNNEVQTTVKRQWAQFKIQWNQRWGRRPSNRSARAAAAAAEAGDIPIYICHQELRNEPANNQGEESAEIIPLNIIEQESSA
Type: cell-based
Method: The compounds of the present invention elicit important and measurable pharmacological responses. As is to be expected, the efficacy of any compound will vary depending upon the particular assay and the particular compound tested.
All recombinant cell line human calcitonin receptor assays were carried out with the human receptor corresponding to GeneBank Accession Number X69920, [See: Molecular Pharmacology 46 (2):246–255, 1994, Cloning and characterization of an abundant subtype of the human calcitonin receptor] cloned from the MCF7 cell line (American Type Tissue Collection, Manassas, Va., USA, Catalog # HTB-22). Human calcitonin receptor (hCT2R) was cloned as a HindIII fragment into plasmid BS SKII. Chinese hamster ovary cells were co-transfected with a 6CRE-luciferase reporter system and hCTR2. HEK cells were transfected with hCTR2.
CHO-6CRE-luciferase cells with or without co-expressed hCTR2 were grown in suspension in commercially available cell culture medium supplemented with 2 mM L-glutamine and 5% fetal bovine serum (FBS). Sixteen hours before each assay, cells were collected and resuspended at 1,000,000 cells/ml in media without FBS. Cells were cultured in spinner flasks at 37° C. in an atmosphere of 5% CO2. At the time of the assay, cells were pelleted by centrifugation and resuspended in media without FBS at a concentration of 250,000 cells/ml. The cell suspension was pipetted into black 96-well microtiter plates (25,000 cells/well) containing test compounds. After a four-hour incubation at 37° C., media was aspirated, followed by addition of 50 microliters of LucLite and PBS (1:1) containing 1 mM CaCl2 and 1 mM MgCl2. The plates were sealed and incubated for 20 minutes in the dark. Luminescent responses were measured using a Packard TopCount.
Structure activity studies were performed on CHO-6CRE-luciferase cells with or without co-transfected hCT2R. Forty-eight hours before each assay, cells were removed with trypsin and plated in 96-well microtiter plates at a concentration of 25–100,000 cells/well. Sixteen hours before each assay, FBS-containing media was removed and replaced with media without FBS. Compounds were added and incubated for four hours at 37° C. After incubation, media was aspirated and 50 microliters of LucLite in PBS (1:1) containing 1 mM CaCl2 and 1 mM MgCl2 were added to each well. Plates were sealed and incubated for 20 minutes in the dark before quantification of luminescence on a Packard TopCount.
Concentration-response curves were calculated and potencies were reported as the concentration of compounds producing half-maximal responses (EC50) or the negative log of the concentration of compounds producing half-maximal responses (pEC50).

Compound	pEC50
CCOC(=O)c1c(Cc2ccc(F)cc2)nc2c(c1-c1ccc(C(=O)NCc3ccco3)nn1)C(=O)N1CCCC21 (stereo not drawn) [Example 39, Ethyl 2-(4-fluorobenzyl)-4-(6-{[(2-furylmethyl)amino]carbonyl}-3-pyridazinyl)-5-oxo-7,8,9,9a-tetrahydro-5H-pyrido[2,3-α]pyrrolizine-3-carboxylate]	7.00 to 8.00
CCOC(=O)c1c(CCc2ccc(F)cc2)nc2c(c1-c1ccc(C)cc1)C(=O)N1CCC[C@@H]21 [Example 40, Ethyl (9aS)-2-[2-(4-fluorophenyl)ethyl]-4-(4-methylphenyl)-5-oxo-7,8,9,9a-tetrahydro-5H-pyrido[2,3-α]pyrrolizine-3-carboxylate]	6.00 to 7.00
O=C(NCc1ccco1)c1ccc(-c2c(C(=O)c3ccco3)c(CCc3ccc(F)cc3)nc3c2C(=O)N2CCC[C@@H]32)cc1 [Example 31, 4-[(9aS)-2-[2-(4-fluorophenyl)ethyl]-3-(2-furoyl)-5-oxo-7,8,9,9a-tetrahydro-5H-pyrido[2,3-α]pyrrolizin-4-yl]-N-(2-furylmethyl)benzamide]	≥ 8.00
O=C(NCc1ccco1)c1ccc(-c2c(NC(=O)C(F)(F)F)c(CCc3ccc(C(F)(F)F)cc3)nc3c2C(=O)N2CCC[C@@H]32)cc1 [Example 27, 4-((9aS)-3-[(Trifluoromethylcarbonyl)amino]-5-oxo-2-{2-[4-(trifluoromethyl)phenyl]ethyl}-7,8,9,9a-tetrahydro-5H-pyrido[2,3-α]pyrrolizin-4-yl)-N-(2-furylmethyl)benzamide]	6.00 to 7.00
CCOC(=O)c1c(Cc2ccc(F)cc2F)nc2c(c1-c1ccc(C(=O)NCc3ccco3)cc1)C(=O)N1CCC[C@@H]21 [Example 6, Ethyl (9aS)-2-(2,4-difluorobenzyl)-4-(4-{[(2-furylmethyl)amino]carbonyl}phenyl)-5-oxo-7,8,9,9a-tetrahydro-5H-pyrido[2,3-α]pyrrolizine-3-carboxylate]	7.00 to 8.00
CCOC(=O)c1c(Cc2ccc(F)cc2F)nc2c(c1-c1cnc(C(=O)N[C@@H]3CCc4ccccc43)cn1)C(=O)N1CCC[C@@H]21 [Example 22, Ethyl(9aS)-2-(2,4-difluorobenzyl)-4-(5-{[(1R)-2,3-dihydro-1H-inden-1-ylamino]carbonyl}-2-pyrazinyl)-5-oxo-7,8,9,9a-tetrahydro-5H-pyrido[2,3-a]pyrrolizine-3-carboxylate]	7.00 to 8.00
O=C(N[C@@H]1CCc2ccccc21)c1ccc2c(c1)[nH]c(=O)c1c(Cc3ccc(F)cc3)nc3c(c12)C(=O)N1CCC[C@@H]31 [Example 58, (8bS)-N-[(1R)-2,3-dihydro-1H-inden-1-yl]-7-(4-fluorobenzyl)-6,13-dioxo-5,8b,9,10,11,13-hexahydro-6H-benzo[c]pyrroizino[2,1-f][2,7]naphthyridine-3-carboxamide]	6.00 to 7.00
CCOC(=O)c1c(Cc2ccc(F)cc2)nc2c(c1-c1ccc(CNC(=O)c3ccccc3)s1)C(=O)N1CCC[C@@H]21 [Example 46, Ethyl (9aS)-4-{5-[(benzoylamino)methyl]-2-thienyl}-2-(4-fluorobenzyl)-5-oxo-7,8,9,9a-tetrahydro-5H-pyrido[2,3-α]pyrrolizine-3-carboxylate]	6.00 to 7.00

The next lines start with the values.

pEC50	Compound
7.00 to 8.00	CCOC(=O)c1c(CCc2ccc(C(F)(F)F)cc2)nc2c(c1-c1nc(C(=O)N[C@@H]3CCc4ccccc43)co1)c(=O)n1n2CCC1 [Example 21, Ethyl 4-(4-{[(1R)-2,3-dihydro-1H-inden-1-ylamino]carbonyl}-1,3-oxazol-2-yl)-5-oxo-2-{2-[4-(trifluoromethyl)phenyl]ethyl}-8,9-dihydro-5H,7H-pyrazolo[1′, 2′:1,2]pyrazolo[3,4-b]pyridine-3-carboxylate]
7.00 to 8.00	CCOC(=O)C1=C(CCc2ccc(C(F)(F)F)cc2)Nc2c(c(=O)n3n2CCC3)C1c1ccc(C(=O)N[C@@H]2CCc3ccccc32)cc1 (stereo partly drawn) [Example 61, Ethyl 4-(4-{[(1R)-2,3-dihydro-1H-inden-1-ylamino]carbonyl}phenyl)-5-oxo-2-{2-[4-(trifluoromethyl)phenyl]ethyl}-1,5,8,9-tetrahydro-4H,7H-pyrazolo[1′,2′:1,2]pyrazolo[3,4-b]pyridine-3-carboxylate]
6.00 to 7.00	CCOC(=O)C1=C(Cc2ccc(F)cc2)Nc2c(c(=O)n3n2CCC3)C1c1ccc(C(=O)N[C@@H]2CCc3ccccc32)cc1 (stereo partly drawn) [Example 60, Ethyl 4-(4-{[(1R)-2,3-dihydro-1H-inden-1-ylamino]carbonyl}phenyl)-2-(4-fluorobenzyl)-5-oxo-1,5,8,9-tetrahydro-4H,7H-pyrazolo[1′,2′:1,2]pyrazolo[3,4-b]pyridine-3-carboxylate]
6.00 to 7.00	N#Cc1c(CCc2ccc(C(F)(F)F)cc2)nc2c(c1-c1ccc(C(=O)NCc3ccco3)cc1)C(=O)N1CCC[C@@H]21 [Example 28, 4-((9aS)-3-Cyano-5-oxo-2-{2-[4-(trifluoromethyl)phenyl]ethyl}-7,8,9,9a-tetrahydro-5H-pyrido[2,3-α]pyrrolizin-4-yl)-N-(2-furylmethyl)benzamide]
≤ 6.00	CCOC(=O)c1c(CCc2ccc(F)cc2)cc2c(c1-c1ccc(C(=O)OCc3ccccc3)cc1)C(=O)N1CCC[C@@H]21 [Example 48, Ethyl (9bS)-6-{4-[(benzyloxy)carbonyl]phenyl}-8-[2-(4-fluorophenyl)ethyl]-5-oxo-2,3,5,9b-tetrahydro-1H-pyrrolo[2.1-a]isoindole-7-carboxylate]
7.00 to 8.00	O=C(NC1CCc2ccccc21)c1ccc(-c2c(NC(=O)C(F)(F)F)c(Cc3ccc(F)cc3F)nc3c2C(=O)N2CCCC32)cc1 [Example 23, 4-{(9aS)-2-(2,4-difluorobenzyl)-5-oxo-3-[(trifluoroacetyl)amino]-7,8,9,9a-tetrahydro-5H-pyrido[2,3-α]pyrrolizin-4-yl}-N-[(1R)-2,3-dihydro-1H-inden-1-yl]benzamide]
≤ 6.00	CCOC(=O)c1c(CCc2ccc(F)cc2)cc2c(c1-c1ccc(C(=O)NCc3ccco3)cc1)C(=O)N1CCC[C@@H]21 [Example 50, Ethyl (9bS)-8-[2-(4-flurophenyl)ethyl]-6-(4-{[(2-furylmethyl)amino]carbonyl}phenyl)-5oxo-2,3,5,9b-tetrahydro-1H-pyrrolo[2,1-α]isoindole-7-carboxylate]
≥ 8.00	CCOC(=O)c1c(CCc2ccc(F)cc2)nc2c(c1-c1ccc(C(=O)N[C@@H]3CCc4ccccc43)s1)C(=O)N1CCC[C@@H]21 [Example 18, Ethyl(9aS)-4-(5-{[(1R)-2,3-dihydro-1H-inden-1-ylamino]carbonyl}-2-thienyl)-2-[2-(4-fluorophenyl)ethyl]-5-oxo-7,8,9,9a-tetrahydro-5H-pyrido[2,3-a]pyrrolizine-3-carboxylate]
6.00 to 7.00	CCOC(=O)c1c(CCc2ccc(C(F)(F)F)cc2)nc2c(c1-c1ccc(CC(=O)NCc3ccco3)cc1)C(=O)N1CCC[C@@H]21 [Example 37, Ethyl (9aS)-4-(4-{2-[(2-furylmethyl)amino]-2-oxoethyl}phenyl)-5-oxo-2-{2-[4-(trifluoromethyl)phenyl]ethyl}-7,8,9,9a-tetrahydro-5H-pyrido[2,3-α]pyrrolizine-3-carboxylate]
≥ 8.00	CCOC(=O)c1c(CCCC(C)C)nc2c(c1-c1ccc(C(=O)N[C@@H]3CCc4ccccc43)cc1)C(=O)N1CCC[C@@H]21 [Example 43, Ethyl (9aS)-4-(4-{[(1R)-2,3-dihydro-1H-inden-1-ylamino]carbonyl}phenyl)-2-(4-methylpentyl)-5-oxo-7,8,9,9a-tetrahydro-5H-pyrido[2,3-α]pyrrolizine-3-carboxylate]
